Results published in patent US20230340530A1, “Methods of Protecting RNA” (Pfizer Inc., priority 2020, published 2023).

How the values were obtained:
[1] = test system: random 30nt RNA oligonucleotide with a 5′ Cy5 fluorophore and a 3′ Biotin (SEQ ID NO: 9); experiment: RNA Fluorescence Polarization (FP) protection assay; format: biochemical; details: 62.5 mM NaOH, 18 hours, dose response 600 µM top dose, n=2
Description: (§1) In the FP assay, fluorophores were added to the 3′ and 5′ end of a short RNA construct and incubated with a boron compound under accelerated degradation conditions (e.g., base and temperature). For intact RNA, the 2 fluorophores come together to produce fluorescence. When the RNA is cleaved, there is no fluorescence. […] The counter screen assay run for each boron compound was used as control.
The RNA FP protection assay used a random 30nt RNA oligonucleotide (oligo) with a 5′ Cy5 fluorophore and a 3′ Biotin of the following sequence: 5′-Cy5-
In the presence of excess streptavidin, the RNA oligo will bind to the streptavidin and rotational spin will decrease causing an increase in the mP value in a fluorescence polarization (FP) measurement. When the RNA backbone is hydrolyzed under base mediated hydrolysis with increasing pH the Cy5 fluorophore will be free to spin faster lowering the mP value in an FP measurement. Compounds that inhibit base mediated hydrolysis will prevent release of Cy5 and reduction in mP value. […]
With regard to the plots provided in FIGS. 2-7, the detection for this assay used the fluorescent polarization of the fluorescent dye used in the assay. When a fluorescent dye has a high mass the spin rate is low and when the fluorescence is measured using two polarizing filters one parallel and one perpendicular the amount of spin can be measured. The unit Polarization was measured as mili-Polarization (mP). A dye with high mass will have a high mP reading and low mass will have a low mP reading. Streptavidin was added to bind to the biotin-RNA-Cy5 oligo to achieve high mass and the high mP reading. […] When a boron compound dose provides 100% activity, the RNA is intact/protected and the mP value measured is high. […]
To all wells in a compound spotted assay ready plate (Coming #3820) were added 2.5 µL of a 2x Biotin-RNA-Cy5 (Genescript custom #SC1518) and Streptavidin (ThermoFisher#21135) made in nuclease free water, incubated for 20 minutes, 2.5 µL of 50 mM Tris pH 7.2 was added to the positive control wells, and 2.5 µL 125 mM NaOH was added to all other wells. […]

[2] = RNA FP protection counter screen assay; details: counter screen for false positives, n=2
Description: as §1

[3] = target: RNA samples (Chi18 or HCV IRES); experiment: Droplet Digital Polymerase Chain Reaction (ddPCR) assay of RNA protection; format: biochemical; details: 50 mM Tris buffer pH 11.4, 16 hrs at 30° C. for Chi18 or 42° C. for HCV; table does not say which RNA; 600 µM to 0.018 µM compound, 2% DMSO; read-out: EC50 Values Obtained from the ddPCR Assay
Description: The ddPCR assays measured RNA integrity by converting intact RNA to cDNA by reverse transcription, then performing digital PCR in thousands of nanoliter-sized droplets for each sample. PCR was performed within each droplet, which allowed for more sensitive detection of subtle changes in RNA concentration compared to traditional PCR or qPCR. Additionally, primers/probes specific to the 5′ end of the RNA/cDNA transcript(s) were used to assess fragment integrity, i.e. degraded RNA had fewer 5′ positive droplets. The BioRad QX200 Droplet Digital PCR System was used for the ddPCR workflow.
RNA samples (Chi18 or HCV IRES) were diluted to 100 fg/µL in 50 mM Tris buffer pH 11.4. Boron compounds were tested in a dose-response format to determine EC50. A compound dilution plate that contained a 30 mM top concentration of compound in DMSO was serially (half-log) diluted 10 times. A quantity of 0.12 µL of this compound dilution plate was spotted into a 96-well PCR plate (Thermo). Sample RNAs were added (6 µL) and incubated with test compounds as described below. Final compound concentrations ranged from 600 µM to 0.018 µM in 2% DMSO.
For the degradation reaction, treated RNAs were incubated for 16 hrs at 30° C. for Chi18 samples or 42° C. for HCV samples. Upon completion of the degradation reaction, cDNA was made and ddPCR run for each sample (96 well plates). Positive 5′ droplet values were divided by the total accepted droplet values for each sample and a ratio value generated for each sample.
Data was imported into a database where percent (%) protection and compound EC50 were calculated and curated. […] EC50 was determined by using a four parameter logistic equation: Y=A+((B-A)/(1+(C/X)D)); where Y is percent protection, X is compound concentration, A and B are minimum and maximum asymptotes, respectively, C is EC50, and D is Hill slope.

Row | Compound | ability of the boron compound to protect RNA from being cleaved/degraded (percent activity, FP) [1] | activity in the RNA FP protection counter screen [2] | EC50 [3]
1 | CC1(C)OB(O)c2cc(C(=O)O)ccc21 [PF-06966741, 1-hydroxy-3,3-dimethyl-1,3-dihydrobenzo[c][1,2]oxabor ole-6-carboxylic acid] | RNA protective effect | lack of activity | –
2 | NCc1cc(C(F)(F)F)ccc1Oc1ccc2c(c1)COB2O [PF-06967658, 5-(2-(aminomethyl)-4-(trifluoromethyl)phenoxy)be nzo[c][1,2]oxaborol-1 (3H)-ol] | RNA protective effect | lack of activity | –
3 | CC1(C)OB(C2(B3OC(C)(C)C(C)(C)O3)CCCCC2)OC1(C)C [PF-07230998, 2,2′-(cyclohexane-1,1-diyl)bis(4,4,5,5-tetramethyl-1,3,2-dioxaborolane)] | RNA protective effect | lack of activity | –
4 | COC(=O)c1cc(B2OC(C)(C)C(C)(C)O2)cc(C(=O)OC)n1 [PHA-00804319, dimethyl 4-(4,4,5,5-tetramethyl-1,3,2-dioxaborolan-2-yl)pyridine-2,6-dicarboxylate] | – | – | 214 µM
5 | bis(acetato-kappaO)[1-cyclopropyl-6,7-difluoro-8-methyl-4-(oxo-kappaO)-1,4-dihydroquinoline-3-carboxylato-kappaO]boron [PF-04743686] | – | – | 271 µM
